Experimental data taken from patent publication US12522597B2, “Methods and compositions for modulating splicing” (Skyhawk Therapeutics, Inc., priority 2019, dated 2026).
Like-named read-outs stand apart in the source and are kept apart here.

Columns and labels:
mHTT protein = mHTT protein assay (2B7-MW1, Mesoscale Discovery); assay type: cell-based, human; conditions: GM04724 (CAG 70/20) Huntington's disease patient lymphoblast cells, 48 hours, 2B7-MW1 MSD; read-out: HTT Potency - Protein EC50 mHTT (average)
How it was run: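 GM04724 Huntington's patient lymphoblasts (CAG 70/20) were treated for 48 h at 10 μM to 0.6 nM. mHTT was quantified by 2B7-MW1 MSD immunoassay, whose signal depends on polyQ expansion and HTT fragment size. Viability was run on a parallel plate by CellTiter-Glo.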

[1] = test system: Huntingtin (HTT) transcripts; test: Quantitative splicing assay (HTT), qPCR; assay type: cell-based; conditions: Homo sapiens, GM04724 (CAG 70/20) Huntington's disease patient lymphoblasts, 24 h
Method: GM04724 (CAG 70/20) Huntington's disease patient lymphoblasts (Coriell) are plated in 96-wel v-bottom plates at 50,000 cells/well. Immediately after plating, cells are dosed with compound for 24 h at concentrations ranging from 2.5 uM to 0.15 nM (0.1% DMSO). Treated cells are lysed and cDNA synthesized using the Fast Advanced Cells-to-Ct kit (Thermofisher A35378) according to the manufacturer's instructions. 2 uL of each cDNA are used in qPCR reactions to confirm the compound-induced inclusion of a cryptic exon within intron 49 of the Huntingtin (HTT) transcripts. The qPCR reactions are prepared in 384-well plates in 10 uL volume, using TaqMan™ Fast Advanced Master Mix [ThermoFisher; 4444965] with primers and probes shown in the table below. Reactions are run in a Quant Studio 6 qPCR instrument with default settings.

[2] = test system: MDR1-MDCK cell monolayers; test: MDCK-MDR1 permeability assay (BBB penetration potential); assay type: in vitro ADME; conditions: dog, MDCK-MDR1, 120 min, 5 μM, pH 7.4
Method: (§1) Each determination is performed in duplicate. […] Analytical conditions are outlined below.

MDR1 = test: as above; assay type: in vitro ADME; conditions: dog; for efflux ratio at 120 min, 5 μM: MDCK-MDR1, pH 7.4, MDCK-MDR1: Efflux; for Papp A→B at 120 min, 5 μM: MDCK-MDR1, pH 7.4, MDCK-MDR1: Papp A-B; for Papp B→A at 120 min, 5 μM: MDCK-MDR1, pH 7.4, MDCK-MDR1: Papp B-A
Method: as §1

[3] = qPCR HTTex49_50, read-out: HTT Potency - Splicing: E49-50 EC50 (average)
[4] = qPCR cryptic exon 49b inclusion, read-out: HTT Potency - Splicing: E49b EC50 (average)

Compound | EC50 (mHTT protein) | EC50 [1, 3] | EC50 [1, 4] | MDCK-MDR1: % Recov A-B [2] | MDCK-MDR1: % Recov B-A [2] | efflux ratio at 120 min, 5 μM (MDR1) | Papp A→B at 120 min, 5 μM (MDR1) | Papp B→A at 120 min, 5 μM (MDR1)
Cn1ccc(-c2ccc(-c3ccc(O[C@@H]4C[C@H]5CCC[C@H](N5)[C@@H]4F)nn3)c(O)c2)cc1=O (single isomer, unassigned) [54-ENT1] | 0.01 to 15 nM | 16 to 50 nM | 16 to 50 nM | 94% | 105% | 57 | 1.1 ×10⁻⁶ cm/s | 63 ×10⁻⁶ cm/s
CNC(=O)c1ccc2cc(-c3ccc(O[C@@H]4C[C@H]5CCC[C@H](N5)[C@@H]4F)nn3)c(O)cc2n1 (single isomer, unassigned) [136-ENT2] | 0.01 to 15 nM | 0.01 to 15 nM | 16 to 50 nM | 88% | 93% | 25 | 2.1 ×10⁻⁶ cm/s | 52.1 ×10⁻⁶ cm/s
Cn1cc(-c2ccc(-c3ccc(O[C@H]4C[C@@H]5CCC[C@@H](N5)[C@@H]4F)nn3)c(O)c2)cn1 (single isomer, unassigned) [49-ENT2] | 16 to 50 nM | 16 to 50 nM | 0.01 to 15 nM | 46% | 75% | 3 | 4.62 ×10⁻⁶ cm/s | 15.4 ×10⁻⁶ cm/s
Cn1ccc2cc(O)c(-c3ccc(O[C@@H]4C[C@@]5(C)CC[C@](C)(N5)[C@@H]4F)nn3)cc2c1=O (single isomer, unassigned) [130-ENT2] | 0.01 to 15 nM | 16 to 50 nM | 16 to 50 nM | 78% | 79% | 5 | 9.9 ×10⁻⁶ cm/s | 49.6 ×10⁻⁶ cm/s
Cn1ccc(-c2ccc(-c3ccc(O[C@H]4C[C@@H]5CCC[C@@H](N5)[C@H]4F)nn3)c(O)c2)cc1=O (single isomer, unassigned) [54-ENT2] | 16 to 50 nM | 16 to 50 nM | 16 to 50 nM | 101% | 107% | 34 | 1.8 ×10⁻⁶ cm/s | 61.9 ×10⁻⁶ cm/s
Oc1cc(-c2nnco2)ccc1-c1ccc(O[C@H]2C[C@@H]3CCC[C@@H](N3)[C@H]2F)nn1 (single isomer, unassigned) [117-ENT2] | 16 to 50 nM | 101 to 500 nM | 101 to 500 nM | 78% | 93% | 5 | 7.22 ×10⁻⁶ cm/s | 37.9 ×10⁻⁶ cm/s
Cc1ncc(-c2ccc(-c3ccc(O[C@@H]4C[C@H]5CCC[C@H](N5)[C@@H]4F)nn3)c(O)c2)s1 (single isomer, unassigned) [96-ENT1] | 16 to 50 nM | 16 to 50 nM | 16 to 50 nM | 39% | 72% | 2 | 7.37 ×10⁻⁶ cm/s | 15.2 ×10⁻⁶ cm/s
Oc1cc(-c2cn[nH]c2)ccc1-c1ccc(O[C@@H]2C[C@H]3COC[C@H](N3)[C@@H]2F)nn1 (single isomer, unassigned) [123-ENT1] | 101 to 500 nM | 101 to 500 nM | 101 to 500 nM | 86% | 90% | 14 | 6.22 ×10⁻⁶ cm/s | 87.8 ×10⁻⁶ cm/s
Oc1cc(-c2cn[nH]c2)ccc1-c1ccc(O[C@@H]2C[C@H]3CC[C@H](N3)[C@H]2F)nn1 (single isomer, unassigned) [43-ENT2] | 0.01 to 15 nM | 16 to 50 nM | 16 to 50 nM | 83% | 84% | 9 | 6.27 ×10⁻⁶ cm/s | 58.7 ×10⁻⁶ cm/s
COc1cc(-c2ccc(-c3ccc(O[C@@H]4C[C@H]5CCC[C@H](N5)[C@@H]4F)nn3)c(O)c2)cnn1 (single isomer, unassigned) [76-ENT1] | 16 to 50 nM | 0.01 to 15 nM | 0.01 to 15 nM | 64% | 70% | 8 | 3.83 ×10⁻⁶ cm/s | 32.3 ×10⁻⁶ cm/s
Cn1cc(-c2ccc(-c3ccc(O[C@@H]4C[C@H]5CC[C@H](N5)[C@@H]4F)nn3)c(O)c2)cn1 (single isomer, unassigned) [60-ENT1] | 16 to 50 nM | 51 to 100 nM | 16 to 50 nM | 68% | 84% | 4 | 7.46 ×10⁻⁶ cm/s | 30.5 ×10⁻⁶ cm/s
Cn1ccc2cc(-c3ccc(O[C@@H]4C[C@H]5CCC[C@H](N5)[C@@H]4F)nn3)c(O)cc2c1=O (single isomer, unassigned) [125-ENT2] | 16 to 50 nM | 101 to 500 nM | 51 to 100 nM | 84% | 87% | 16 | 3.2 ×10⁻⁶ cm/s | 52 ×10⁻⁶ cm/s
Cc1ccc(-c2ccc(-c3ccc(O[C@@H]4C[C@H]5CCC[C@H](N5)[C@@H]4F)nn3)c(O)c2)nn1 (single isomer, unassigned) [75-ENT1] | 501 to 10000 nM | 501 to 10000 nM | 501 to 10000 nM | 90% | 92% | 9 | 3.66 ×10⁻⁶ cm/s | 32.5 ×10⁻⁶ cm/s
C[C@@]12CCC[C@@](C)(N1)[C@@H](F)[C@@H](Oc1ccc(-c3ccc(-c4cn[nH]c4)cc3O)nn1)C2 (single isomer, unassigned) [147-ENT1] | 0.01 to 15 nM | 0.01 to 15 nM | 0.01 to 15 nM | 78% | 83% | 13 | 4.61 ×10⁻⁶ cm/s | 58.1 ×10⁻⁶ cm/s
Cn1cc(-c2ccc(-c3ccc(O[C@H]4C[C@@H]5CCC[C@@H](N5)[C@H]4F)nn3)c(O)c2)cn1 (single isomer, unassigned) [1-ENT2] | 0.01 to 15 nM | 16 to 50 nM | 16 to 50 nM | 76% | 83% | 6 | 6.05 ×10⁻⁶ cm/s | 33.7 ×10⁻⁶ cm/s
Cc1ccc(-c2ccc(-c3ccc(O[C@H]4C[C@@H]5CCC[C@@H](N5)[C@H]4F)nn3)c(O)c2)nn1 (single isomer, unassigned) [75-ENT2] | 501 to 10000 nM | 501 to 10000 nM | 501 to 10000 nM | 82% | 78% | 10 | 3.96 ×10⁻⁶ cm/s | 39.7 ×10⁻⁶ cm/s
